In patent US12065436B2, “Cardiac sarcomere inhibitors” (Cytokinetics, Inc., priority 2018, dated 2024):

Molecular target: bovine cardiac myofibrils (full-length cardiac myosin ATPase in the native sarcomere) (Bos taurus (Bovine), UniProt Q9BE39)
Test: Skinned bovine cardiac myofibril ATPase assay (PK/LDH-coupled)
Type: biochemical
Conditions: Ca2+ activating to 75% of maximal rate; for CDMF75 IC15: concentration giving 15% inhibition; for IC50: read-out: CDMF75 IC50
In short: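 Inhibition of steady-state ATPase read at 340 nm through a PK/LDH-coupled NADH system (0.5 mM NADH, 1.5 mM PEP). Detergent-skinned bovine cardiac myofibrils, 1 mg/mL, were tested at pH 6.8 in PIPES/MgCl2 with 50 μM ATP and calcium adjusted to give pCa50 or pCa75 activation.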

Sequence of bovine cardiac myofibrils (full-length cardiac myosin ATPase in the native sarcomere) (Q9BE39 whole entry): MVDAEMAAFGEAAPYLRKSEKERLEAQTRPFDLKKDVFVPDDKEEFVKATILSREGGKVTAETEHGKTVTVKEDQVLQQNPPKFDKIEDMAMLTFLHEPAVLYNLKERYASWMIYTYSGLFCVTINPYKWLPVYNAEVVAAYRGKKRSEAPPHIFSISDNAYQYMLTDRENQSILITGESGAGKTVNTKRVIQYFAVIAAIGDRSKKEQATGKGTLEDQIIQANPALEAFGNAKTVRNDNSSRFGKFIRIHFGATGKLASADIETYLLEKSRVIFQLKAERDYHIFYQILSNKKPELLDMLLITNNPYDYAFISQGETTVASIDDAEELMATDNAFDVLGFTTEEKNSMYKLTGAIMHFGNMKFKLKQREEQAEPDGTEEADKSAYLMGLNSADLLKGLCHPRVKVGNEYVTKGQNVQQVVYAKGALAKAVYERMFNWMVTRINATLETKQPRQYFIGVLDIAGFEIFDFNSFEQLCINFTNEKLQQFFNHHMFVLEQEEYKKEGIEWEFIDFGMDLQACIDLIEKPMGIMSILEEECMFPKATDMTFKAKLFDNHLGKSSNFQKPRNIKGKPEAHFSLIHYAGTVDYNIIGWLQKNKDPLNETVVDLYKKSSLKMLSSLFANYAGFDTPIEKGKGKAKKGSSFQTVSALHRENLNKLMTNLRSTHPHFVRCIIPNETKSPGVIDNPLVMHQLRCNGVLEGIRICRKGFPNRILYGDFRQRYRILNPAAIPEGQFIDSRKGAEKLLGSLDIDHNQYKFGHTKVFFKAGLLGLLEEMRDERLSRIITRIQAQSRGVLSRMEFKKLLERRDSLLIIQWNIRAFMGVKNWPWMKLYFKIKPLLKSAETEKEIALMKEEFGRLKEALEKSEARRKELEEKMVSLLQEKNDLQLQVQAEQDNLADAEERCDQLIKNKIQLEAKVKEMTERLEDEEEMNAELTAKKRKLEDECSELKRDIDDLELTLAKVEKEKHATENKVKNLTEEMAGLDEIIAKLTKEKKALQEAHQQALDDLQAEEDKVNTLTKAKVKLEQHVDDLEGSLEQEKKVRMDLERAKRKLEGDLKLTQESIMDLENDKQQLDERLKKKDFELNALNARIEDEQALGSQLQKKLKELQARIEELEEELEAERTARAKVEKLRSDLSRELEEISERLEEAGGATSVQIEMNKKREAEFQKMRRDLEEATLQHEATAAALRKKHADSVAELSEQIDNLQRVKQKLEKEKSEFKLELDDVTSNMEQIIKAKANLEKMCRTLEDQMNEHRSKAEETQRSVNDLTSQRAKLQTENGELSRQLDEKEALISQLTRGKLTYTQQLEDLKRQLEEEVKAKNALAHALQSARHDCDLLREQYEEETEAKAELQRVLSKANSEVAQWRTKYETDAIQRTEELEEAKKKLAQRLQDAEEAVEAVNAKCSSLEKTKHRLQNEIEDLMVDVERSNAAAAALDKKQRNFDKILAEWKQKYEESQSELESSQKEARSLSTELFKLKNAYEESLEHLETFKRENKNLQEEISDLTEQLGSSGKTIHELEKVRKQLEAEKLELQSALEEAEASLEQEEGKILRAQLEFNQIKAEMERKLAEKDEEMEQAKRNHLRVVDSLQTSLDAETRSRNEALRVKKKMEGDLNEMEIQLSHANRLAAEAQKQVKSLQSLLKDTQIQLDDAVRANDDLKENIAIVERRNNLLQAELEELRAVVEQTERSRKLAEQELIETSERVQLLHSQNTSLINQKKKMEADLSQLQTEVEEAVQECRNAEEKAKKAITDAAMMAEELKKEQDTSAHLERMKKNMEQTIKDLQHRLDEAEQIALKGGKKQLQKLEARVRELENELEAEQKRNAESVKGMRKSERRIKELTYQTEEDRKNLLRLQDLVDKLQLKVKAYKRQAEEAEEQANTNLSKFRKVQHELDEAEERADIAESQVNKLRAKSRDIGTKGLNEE
Sequence of bovine cardiac myofibrils (full-length cardiac myosin ATPase in the native sarcomere) (P85100 whole entry partner): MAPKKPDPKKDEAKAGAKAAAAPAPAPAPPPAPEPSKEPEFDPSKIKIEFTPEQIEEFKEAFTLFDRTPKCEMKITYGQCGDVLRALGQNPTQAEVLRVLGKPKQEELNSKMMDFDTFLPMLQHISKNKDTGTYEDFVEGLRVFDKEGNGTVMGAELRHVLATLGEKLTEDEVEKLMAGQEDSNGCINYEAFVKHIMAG
Sequence of bovine cardiac myofibrils (full-length cardiac myosin ATPase in the native sarcomere) (Q3SZE5 whole entry partner): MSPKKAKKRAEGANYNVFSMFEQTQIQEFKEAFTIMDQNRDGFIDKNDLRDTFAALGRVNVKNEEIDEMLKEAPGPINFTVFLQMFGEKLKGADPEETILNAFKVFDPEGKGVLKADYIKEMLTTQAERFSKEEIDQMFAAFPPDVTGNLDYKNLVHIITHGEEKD

Row | Structure (SMILES) | CDMF75 IC15 [µM] | IC50 [µM]
1 | Cc1cc(C(=O)N[C@@H]2COc3cc(-c4noc(C(F)F)n4)cnc32)ccn1 [Compound 196, (S)—N-(6-(5-(difluoromethyl)-1,2,4-oxadiazol-3-yl)-2,3-dihydrofuro[3,2-b]pyridin-3-yl)-2-methylisonicotinamide] | 4.5 | 17.4
2 | Cc1nc(-c2ccc3c(c2)CCC3NC(=O)Nc2cccnn2)no1 (stereo not shown) [Compound 97, 1-(5-(5-methyl-1,2,4-oxadiazol-3-yl)-2,3-dihydro-1H-inden-1-yl)-3-(pyridazin-3-yl)urea] | 2.0 | 7.8
3 | CCc1nc(-c2ccc3c(c2)CC[C@H]3NC(=O)c2cnn(CCCO)c2C)no1 [Compound 611, (R)-N-(5-(5-ethyl-1,2,4-oxadiazol-3-yl)-2,3-dihydro-1H-inden-1-yl)-1-(3-hydroxypropyl)-5-methyl-1H-pyrazole-4-carboxamide] | 0.7 | 2.5
4 | Cc1cncc(C(=O)NC2CCc3cc(-c4noc(C(F)F)n4)ccc32)n1 (stereo not shown) [Compound 23, N-(5-(5-(difluoromethyl)-1,2,4-oxadiazol-3-yl)-2,3-dihydro-1H-inden-1-yl)-6-methylpyrazine-2-carboxamide] | 5.8 | 31.4
5 | COCCn1cc(C(=O)N[C@@H]2CCc3cc(-c4noc(C5CC5)n4)ccc32)cn1 [Compound 510, (R)-N-(5-(5-cyclopropyl-1,2,4-oxadiazol-3-yl)-2,3-dihydro-1H-inden-1-yl)-1-(2-methoxyethyl)-1H-pyrazole-4-carboxamide] | 1.9 | 7.9
6 | Cc1nn(CCO)cc1C(=O)N[C@@H]1CCc2cc(-c3noc(C(F)F)n3)ccc21 [Compound 686, (R)-N-(5-(5-(difluoromethyl)-1,2,4-oxadiazol-3-yl)-2,3-dihydro-1H-inden-1-yl)-1-(2-hydroxyethyl)-3-methyl-1H-pyrazole-4-carboxamide] | 0.9 | 3.1
7 | CCn1nccc1C(=O)NC1CCc2cc(-c3noc(C(F)F)n3)ccc21 (stereo not shown) [Compound 29, N-(5-(5-(difluoromethyl)-1,2,4-oxadiazol-3-yl)-2,3-dihydro-1H-inden-1-yl)-1-ethyl-1H-pyrazole-5-carboxamide] | 1.2 | 5.3
8 | Cc1cc(C(=O)N[C@@H]2CCc3cc(-c4noc(C(F)F)n4)ccc32)on1 [Compound 679, (R)-N-(5-(5-(difluoromethyl)-1,2,4-oxadiazol-3-yl)-2,3-dihydro-1H-inden-1-yl)-3-methylisoxazole-5-carboxamide] | 0.8 | 3
9 | C=Cc1cccc(C(=O)N[C@@H]2CCc3cc(-c4noc(CC)n4)ccc32)c1 [Compound 657, (R)-N-(5-(5-ethyl-1,2,4-oxadiazol-3-yl)-2,3-dihydro-1H-inden-1-yl)-3-vinylbenzamide] | 0.3 | 0.7
10 | CCOC(=O)C(C)c1nc(-c2ccc3c(c2)CCC3NC(=O)c2cnc(C)o2)no1 (stereo not shown) [Compound 493, ethyl 2-(3-(1-(2-methyloxazole-5-carboxamido)-2,3-dihydro-1H-inden-5-yl)-1,2,4-oxadiazol-5-yl)propanoate] | 5.6 | 21.4
11 | CCc1nc(-c2ccc3c(c2)CC[C@H]3NC(=O)c2cnn(C3CN(C(=O)NC)C3)c2)no1 [Compound 479, (R)-N-(5-(5-ethyl-1,2,4-oxadiazol-3-yl)-2,3-dihydro-1H-inden-1-yl)-1-(1-(methylcarbamoyl)azetidin-3-yl)-1H-pyrazole-4-carboxamide] | 4.5 | 23.1
12 | CCc1nc(-c2ccc3c(c2)CC[C@H]3NC(=O)OC2COC2)no1 [Compound 357, oxetan-3-yl (R)-(5-(5-ethyl-1,2,4-oxadiazol-3-yl)-2,3-dihydro-1H-inden-1-yl)carbamate] | 0.5 | 1.7
13 | Cc1noc(-c2ccc3c(c2)CC[C@H]3NC(=O)c2cnc(C)n2C)n1 [Compound 702, (R)-1,2-dimethyl-N-(5-(3-methyl-1,2,4-oxadiazol-5-yl)-2,3-dihydro-1H-inden-1-yl)-1H-imidazole-5-carboxamide] | 2.6 | 11.7

The next lines start with the values.

Row | CDMF75 IC15 [µM] | IC50 [µM] | Structure (SMILES)
14 | 0.7 | 2.6 | [2H]C([2H])([2H])C(=O)N[C@@H]1CCc2cc(-c3noc(CC)n3)ccc21 [Compound 446, (R)-N-(5-(5-ethyl-1,2,4-oxadiazol-3-yl)-2,3-dihydro-1H-inden-1-yl)acetamide-2,2,2-d3]
15 | 1.2 | 5.4 | COCc1nc(-c2ccc3c(c2)OC[C@H]3NC(=O)c2cccc([C@H](C)O)c2)no1 [Compound 736, 3-((S)-1-hydroxyethyl)-N-((S)-6-(5-(methoxymethyl)-1,2,4-oxadiazol-3-yl)-2,3-dihydrobenzofuran-3-yl)benzamide]
16 | 0.3 | 0.9 | CCc1cc(-c2ccc3c(c2)CC[C@H]3NC(=O)c2cn[nH]c2C)no1 [Compound 431, (R)—N-(5-(5-ethylisoxazol-3-yl)-2,3-dihydro-1H-inden-1-yl)-5-methyl-1H-pyrazole-4-carboxamide]
17 | 8.6 | > 39.2 | Cc1noc(-c2ccc3c(c2)OC[C@H]3NC(=O)c2nnn(C)n2)n1 [Compound 344, (S)-2-methyl-N-(6-(3-methyl-1,2,4-oxadiazol-5-yl)-2,3-dihydrobenzofuran-3-yl)-2H-tetrazole-5-carboxamide]
18 | 1.0 | 3.4 | Cc1cc(-c2ccc3c(c2)OC[C@H]3NC(=O)c2cnc(C)o2)no1 [Compound 428, (S)-2-methyl-N-(6-(5-methylisoxazol-3-yl)-2,3-dihydrobenzofuran-3-yl)oxazole-5-carboxamide]
19 | 0.9 | 3.6 | CCc1nc(-c2ccc3c(c2)CC[C@H]3NC(=O)c2ncoc2C)no1 [Compound 622, (R)-N-(5-(5-ethyl-1,2,4-oxadiazol-3-yl)-2,3-dihydro-1H-inden-1-yl)-5-methyloxazole-4-carboxamide]
20 | 1.8 | 8.1 | Cc1nc(-c2ccc3c(c2)CC[C@H]3NC(=O)c2cnn(CCO)c2)no1 [Compound 520, (R)-1-(2-hydroxyethyl)-N-(5-(5-methyl-1,2,4-oxadiazol-3-yl)-2,3-dihydro-1H-inden-1-yl)-1H-pyrazole-4-carboxamide]
21 | 0.6 | 2.7 | COC(=O)N[C@@H]1CCc2cc(-c3noc(C)n3)ccc21 [Compound 303, methyl (R)-(5-(5-methyl-1,2,4-oxadiazol-3-yl)-2,3-dihydro-1H-inden-1-yl)carbamate]
22 | 1.2 | 5.2 | CCc1nc(-c2ccc3c(c2)CC[C@H]3NC(=O)c2cnn(C[C@H](C)O)c2)no1 [Compound 541, N-[(1R)-5-(5-ethyl(1,2,4-oxadiazol-3-yl))indanyl][1-((2S)-2-hydroxypropyl)pyrazol-4-yl]carboxamide]
23 | 0.2 | 0.6 | CCc1cc(-c2ccc3c(c2)CC[C@H]3NC(=O)c2ccnn2C)no1 [Compound 414, (R)—N-(5-(5-ethylisoxazol-3-yl)-2,3-dihydro-1H-inden-1-yl)-1-methyl-1H-pyrazole-5-carboxamide]
24 | 3.1 | 17.6 | CCc1nc(-c2ccc3c(c2)CC[C@H]3NC(=O)c2cc(C)n(C)n2)no1 [Compound 580, (R)-N-(5-(5-ethyl-1,2,4-oxadiazol-3-yl)-2,3-dihydro-1H-inden-1-yl)-1,5-dimethyl-1H-pyrazole-3-carboxamide]
25 | 4.5 | 17.8 | Cc1cccc(-c2ccc3c(c2)CC[C@H]3NC(=O)c2ccnn2C)n1 [Compound 377, (R)-1-methyl-N-(5-(6-methylpyridin-2-yl)-2,3-dihydro-1H-inden-1-yl)-1H-pyrazole-5-carboxamide]
26 | 1.4 | 7.6 | CCc1nc(-c2ccc3c(c2)CC[C@H]3NC(=O)c2cc(C)ncc2F)no1 [Compound 556, (R)-N-(5-(5-ethyl-1,2,4-oxadiazol-3-yl)-2,3-dihydro-1H-inden-1-yl)-5-fluoro-2-methylisonicotinamide]
27 | 39.2 | > 39.2 | Cc1nccc(-c2ccc3c(c2)CC[C@H]3NC(=O)c2ccnn2C)n1 [Compound 379, (R)-1-methyl-N-(5-(2-methylpyrimidin-4-yl)-2,3-dihydro-1H-inden-1-yl)-1H-pyrazole-5-carboxamide]
28 | 0.3 | 0.9 | CCc1nc(-c2ccc3c(c2)CC[C@H]3NC(=O)c2ccnc(Cl)c2)no1 [Compound 647, (R)-2-chloro-N-(5-(5-ethyl-1,2,4-oxadiazol-3-yl)-2,3-dihydro-1H-inden-1-yl)isonicotinamide]
29 | 3.2 | 13.1 | CC(=O)c1nc(-c2ccc3c(c2)CC[C@H]3NC(=O)c2cnn(C)c2)no1 [Compound 545, N-[(1R)-5-(5-acetyl(1,2,4-oxadiazol-3-yl))indanyl](1-methylpyrazol-4-yl)carboxamide]
30 | 0.9 | 3.5 | Cc1ncc(C(=O)N[C@@H]2CCc3cc(-c4noc(C5CCC5)n4)ccc32)o1 [Compound 410, (R)-N-(5-(5-cyclobutyl-1,2,4-oxadiazol-3-yl)-2,3-dihydro-1H-inden-1-yl)-2-methyloxazole-5-carboxamide]
31 | 2.3 | 10.4 | CCc1nc(-c2ccc3c(c2)CC[C@H]3NC(=O)c2cc(C(C)=O)ccn2)no1 [Compound 720, (R)-4-acetyl-N-(5-(5-ethyl-1,2,4-oxadiazol-3-yl)-2,3-dihydro-1H-inden-1-yl)picolinamide]
32 | 4.1 | 16.9 | CCc1nc(-c2ccc3c(c2)CC[C@H]3NC(=O)c2ccn(CCOC)n2)no1 [Compound 602, (R)-N-(5-(5-ethyl-1,2,4-oxadiazol-3-yl)-2,3-dihydro-1H-inden-1-yl)-1-(2-methoxyethyl)-1H-pyrazole-3-carboxamide]
